Structures can show the parent of a compound that is named as a salt.
How the values were obtained:
[1] = tested on: pS6K1 in MCF7 (measure of mTORC1 activity); experiment: AlphaLISA Ultra pS6K1 assay; assay type: cell-based; details: MCF-7 cells, 2 hours compound incubation
Procedure: (§1) Assay Protocol: • 1. […] 12,000˜16,000 cells will be seeded in 36 μL medium per well. • 2. Change the culture medium with fresh medium and incubate for another 2 hours. • 3. Add 12 μL (4λ) compounds into the cell plate by HAMILTON. Final DMSO concentration is 0.5%. Incubate for 2 hours. • 4. Aspirate 38 μL by HAMILTON, 10 μL rest per well. • 5. Add 10 μL 2× lysis buffer using HAMILTON; total volume in wells is 20 μL. Allow cells to shake for 30 min. Cover plate by plastic foil and store plate at −80° C. up to analysis. • 6. […] Add 5 ul acceptor beads into assay plate and incubation for 2 hours • 8. Add 5 ul donor beads and incubation for 2 hours • 9. Count the plate by EnSpire Multimode Plate Reader

[2] = tested on: pAKT in MCF7 (measure of mTORC2 activity); experiment: AlphaLISA Ultra pAKT assay; assay type: cell-based; details: MCF-7 cells, 2 hours compound incubation
Procedure: as §1, with “16,000˜20,000” for “12,000˜16,000”, “(4×)” for “(4λ)”

SMILES | IC50 ([1]; Homo sapiens, MCF7, 2 h) | IC50 ([2]; Homo sapiens, MCF7, 2 h) | IC50 [1] | IC50 [2]
Cc1c(CN2CCN(c3ccccc3Cl)CC2)cc(C(=O)N2CCN(c3cc(F)c(F)cc3C#N)CC2)n1C [Example I-1] | 0.01 to 1 µM | > 1 µM | – | –
Cc1c(CN2CCN(c3ncccc3Cl)CC2)cc(C(=O)N2CCN(c3ccccn3)CC2)n1C [Example I-2] | – | – | 1 to 3 µM | > 10 µM
Cc1c(CN2CCN(c3ncccc3Cl)CC2)cc(C(=O)N2CCN(c3cc(F)c(F)cc3C#N)CC2)n1C [Example I-3] | 0.01 to 1 µM | > 10 µM | – | –
Cc1c(CN2CCN(c3ccccc3C#N)CC2)cc(C(=O)N2CCN(c3cc(F)c(F)cc3C#N)CC2)n1C [Example I-4] | 0.01 to 1 µM | > 1 µM | – | –
Cc1c(CN2CCN(c3ccccc3C#N)CC2)cc(C(=O)N2CCN(c3oc(C4CC4)nc3C#N)CC2)n1C [Example I-14] | 0.01 to 1 µM | > 10 µM | – | –
Cc1c(CN2CCN(c3ccccc3C#N)CC2)cc(C(=O)N2CCN(c3nnccc3C#N)CC2)n1C [Example I-15] | 1 to 3 µM | > 10 µM | – | –
Cc1c(CN2CCN(c3ccccc3C#N)CC2)cc(C(=O)N2CCN(c3cccnn3)CC2)n1C [Example I-16] | 1 to 3 µM | > 10 µM | – | –
Cn1cc(CN2CCN(c3ccccc3C#N)CC2)cc1C(=O)N1CCN(c2nnccc2C#N)CC1 [Example I-17] | 3 to 10 µM | > 10 µM | – | –
Cc1c(CN2CCN(c3ccccc3C#N)CC2)cc(C(=O)N2CCN(c3ccccc3S(C)(=O)=O)CC2)n1C [Example I-21] | 1 to 3 µM | > 10 µM | – | –
Cc1nc(C#N)c(N2CCN(C(=O)c3cc(CN4CCN(c5ccccc5C#N)CC4)c(C)n3C)CC2)o1 [Example I-22] | 1 to 3 µM | > 10 µM | – | –
Cc1c(CN2CCN(c3ccccc3C#N)CC2)cc(C(=O)N2CCN(c3ccccc3C#N)CC2)n1C [Example I-23] | 0.01 to 1 µM | > 10 µM | – | –
Cc1c(CN2CCN(c3ccccc3CCCN)CC2)cc(C(=O)N2CCN(c3ccccc3)C[C@@H]2C)n1C [Example I-24, (S)-(4-((4-(2-(3-aminopropyl)phenyl)piperazin-1-yl)methyl)-1,5-dimethyl-1H-pyrrol-2-yl)(2-methyl-4-phenylpiperazin-1-yl)methanone ditrifluoroacetate salt] | 3 to 10 µM | > 10 µM | – | –
Cc1c(CN2CCN(c3ccccc3Cl)CC2)cc(C(=O)N2CCN(c3cccc(CCCN)c3)C[C@H]2C)n1C [Example I-27, (R)-(4-(3-(3-aminopropyl)phenyl)-2-methylpiperazin-1-yl)(4-((4-(2-chlorophenyl)piperazin-1-yl)methyl)-1,5-dimethyl-1H-pyrrol-2-yl)methanone trifluoroacetate salt] | 1 to 3 µM | > 10 µM | – | –
Cc1c(CN2CCN(c3ccccc3Cl)CC2)cc(C(=O)N2CCN(c3ccccc3)C[C@@H]2C)n1CCCN [Example I-29, (S)-(1-(3-aminopropyl)-4-((4-(2-chlorophenyl)piperazin-1-yl)methyl)-5-methyl-1H-pyrrol-2-yl)(2-methyl-4-phenylpiperazin-1-yl)methanone dihydrochloride salt] | 3 to 10 µM | > 10 µM | – | –
Cc1c(CN2CCN(c3ccccc3Cl)CC2)cc(C(=O)N2CCN(c3cccc(CCCN)c3)C[C@@H]2C)n1C [Example I-30, (S)-(4-(3-(3-aminopropyl)phenyl)-2-methylpiperazin-1-yl)(4-((4-(2-chlorophenyl)piperazin-1-yl)methyl)-1,5-dimethyl-1H-pyrrol-2-yl)methanone trifluoroacetate salt] | 3 to 10 µM | > 10 µM | – | –
Cc1c(CN2CCN(c3ccccc3Cl)CC2)cc(C(=O)N2CCN(c3cccc4cc[nH]c34)C[C@@H]2C)n1C [Example I-31, (S)-(4-(1H-indol-7-yl)-2-methylpiperazin-1-yl)(4-((4-(2-chlorophenyl)piperazin-1-yl)methyl)-1,5-dimethyl-1H-pyrrol-2-yl)methanone] | 1 to 3 µM | > 10 µM | – | –
Cc1c(CN2CCN(c3ccccc3Cl)CC2)cc(C(=O)N2CCN(c3ccc4[nH]ccc4c3)C[C@@H]2C)n1C [Example I-33, (S)-(4-(1H-indol-5-yl)-2-methylpiperazin-1-yl)(4-((4-(2-chlorophenyl)piperazin-1-yl)methyl)-1,5-dimethyl-1H-pyrrol-2-yl)methanone trifluoroacetate salt] | 1 to 3 µM | > 10 µM | – | –

SMILES | IC50 ([1]; Homo sapiens, MCF7, 2 h) | IC50 ([2]; Homo sapiens, MCF7, 2 h) | IC50 [1] | IC50 [2]
Cc1c(CN2CCN(c3ccccc3Cl)CC2)cc(C(=O)N2CCN(c3ccc4cc[nH]c4c3)C[C@@H]2C)n1C [Example I-34, (S)-(4-(1H-indol-6-yl)-2-methylpiperazin-1-yl)(4-((4-(2-chlorophenyl)piperazin-1-yl)methyl)-1,5-dimethyl-1H-pyrrol-2-yl)methanone trifluoroacetate salt] | 1 to 3 µM | > 10 µM | – | –
Cc1c(CN2CCN(c3ccccc3Cl)CC2)cc(C(=O)N2CCn3ncc(-c4ccccc4)c3C2)n1C [Example I-35, (4-((4-(2-Chlorophenyl)piperazin-1-yl)methyl)-1,5-dimethyl-1H-pyrrol-2-yl)(3-phenyl-6,7-dihydropyrazolo[1,5-a]pyrazin-5(4H)-yl)methanone] | 1 to 3 µM | > 10 µM | – | –
Cn1c(C(=O)N2CCN(c3ccccc3)CC2)cc(CN2CCN(c3ccccc3Cl)CC2)c1C#N [Example I-36] | 0.01 to 1 µM | > 10 µM | – | –
Cc1nc(N2CCN(C(=O)c3cc(CN4CCN(c5ccccc5Cl)CC4)c(C#N)n3C)CC2)ccc1F [Example I-37] | 0.01 to 1 µM | > 3 µM | – | –
Cc1cccc(N2CCN(C(=O)c3cc(CN4CCN(c5ccccc5Cl)CC4)c(C#N)n3C)CC2)n1 [Example I-38] | 0.01 to 1 µM | > 3 µM | – | –
Cn1c(C(=O)N2CCN(c3ccccc3)CC2)cc(CN2CCN(c3ccccc3C#N)CC2)c1C#N [Example I-39] | 0.01 to 1 µM | > 10 µM | – | –
Cc1c(CN2CCN(c3ccccc3Cl)CC2)cc(C(=O)N2CCCN(c3cccc(C#N)c3)CC2)n1C [Example I-40, 3-(4-(4-((4-(2-chlorophenyl)piperazin-1-yl)methyl)-1,5-dimethyl-1H-pyrrole-2-carbonyl)-1,4-diazepan-1-yl)benzonitrile] | 3 to 10 µM | > 10 µM | – | –
Cc1c(CN2CCCN(c3ccccc3Cl)CC2)cc(C(=O)N2CCN(c3cccc(C#N)c3)C[C@@H]2C)n1C [Example I-41, (S)-3-(4-(4-((4-(2-chlorophenyl)-1,4-diazepan-1-yl)methyl)-1,5-dimethyl-1H-pyrrole-2-carbonyl)-3-methylpiperazin-1-yl)benzonitrile] | 1 to 3 µM | > 10 µM | – | –
Cc1c(CN2CCN(c3ccccc3C#N)CC2)cc(C(=O)N2CCN(c3ccccn3)C[C@@H]2C)n1C [Example I-42] | 0.01 to 1 µM | > 3 µM | – | –
Cc1c(CN2CCN(c3ccccc3C#N)CC2)cc(C(=O)N2CCN(c3cccc(C#N)n3)CC2)n1C [Example I-43] | 0.01 to 1 µM | > 3 µM | – | –
Cc1c(CN2CCN(c3ncccc3Cl)CC2)cc(C(=O)N2CCN(c3ccccn3)CC2)n1C [Example I-44] | – | – | 0.01 to 1 µM | > 3 µM
Cc1c(CN2CCN(c3ccccc3C#N)CC2)cc(C(=O)N2CCCN(c3cccc(C#N)c3)CC2)n1C [Example I-45, 2-(4-((5-(4-(3-cyanophenyl)-1,4-diazepane-1-carbonyl)-1,2-dimethyl-1H-pyrrol-3-yl)methyl)piperazin-1-yl)benzonitrile] | 1 to 3 µM | > 10 µM | – | –
Cc1c(C(C)N2CCN(c3ccccc3Cl)CC2)cc(C(=O)N2CCN(c3ccc(F)cc3)C[C@@H]2C)n1C (stereo partly drawn) [Example I-46, (4-(1-(4-(2-Chlorophenyl)piperazin-1-yl)ethyl)-1,5-dimethyl-1H-pyrrol-2-yl)((S)-4-(4-fluorophenyl)-2-methylpiperazin-1-yl)methanone] | 1 to 3 µM | > 10 µM | – | –
Cc1c(CN2CCCN(c3ccccc3Cl)CC2)cc(C(=O)N2CCN(c3ccc(F)cc3)C[C@@H]2C)n1C [Example I-47, (S)-(4-((4-(2-chlorophenyl)-1,4-diazepan-1-yl)methyl)-1,5-dimethyl-1H-pyrrol-2-yl)(4-(4-fluorophenyl)-2-methylpiperazin-1-yl)methanone] | 1 to 3 µM | > 10 µM | – | –
Cc1c(CN2CCN(c3ccccc3C#N)CC2)cc(C(=O)N2CCN(c3ccc4ncn(C)c4c3)CC2)n1C [Example I-48] | 3 to 10 µM | > 10 µM | – | –
Cc1c(CN2CCN(c3ccccc3Cl)CC2)cc(C(=O)N2CCCN(c3ccc(F)cc3)CC2)n1C [Example I-49, (4-((4-(2-Chlorophenyl)piperazin-1-yl)methyl)-1,5-dimethyl-1H-pyrrol-2-yl)(4-(4-fluorophenyl)-1,4-diazepan-1-yl)methanone] | 1 to 3 µM | > 10 µM | – | –
Cc1c(CN2CCN(c3ccccc3C#N)CC2)cc(C(=O)N2CCCN(c3ccc(F)cc3)CC2)n1C [Example I-50, 2-(4-((5-(4-(4-Fluorophenyl)-1,4-diazepane-1-carbonyl)-1,2-dimethyl-1H-pyrrol-3-yl)methyl)piperazin-1-yl)benzonitrile] | 1 to 3 µM | > 10 µM | – | –

Reference: patent publication US20190389843A1, “PYRROLE mTORC INHIBITORS AND USES THEREOF” (Navitor Pharmaceuticals, Inc., priority 2016, published 2019)
